These results are taken from patent US9340600B2 (Indiana University Research and Technology Corporation, priority 2012, dated 2016).

Holding throughout (assay type): cell-based
For one assay, the target named is T1, GLP-1 receptor (Homo sapiens, UniProt P43220).
T1 construct: expressed in transfected cells; host or cells: HEK293
The assay can be described thus: cAMP induction, firefly luciferase-based reporter assay in HEK293 cells co-transfected with GLP-1 receptor. Conditions: EC50 at GLP-1 Receptor. From the text:
(§1) This example describes an exemplary method of testing the biological activity of the peptides of the present disclosures, which method involves assaying cAMP synthesis.
For orientation: A reporter such as luciferase makes a cellular process visible.

In another assay the target is T2, GIP receptor (Homo sapiens, UniProt P48546).
T2 construct: expressed in transfected cells; host or cells: HEK293
T2 sequence (P48546 22-466): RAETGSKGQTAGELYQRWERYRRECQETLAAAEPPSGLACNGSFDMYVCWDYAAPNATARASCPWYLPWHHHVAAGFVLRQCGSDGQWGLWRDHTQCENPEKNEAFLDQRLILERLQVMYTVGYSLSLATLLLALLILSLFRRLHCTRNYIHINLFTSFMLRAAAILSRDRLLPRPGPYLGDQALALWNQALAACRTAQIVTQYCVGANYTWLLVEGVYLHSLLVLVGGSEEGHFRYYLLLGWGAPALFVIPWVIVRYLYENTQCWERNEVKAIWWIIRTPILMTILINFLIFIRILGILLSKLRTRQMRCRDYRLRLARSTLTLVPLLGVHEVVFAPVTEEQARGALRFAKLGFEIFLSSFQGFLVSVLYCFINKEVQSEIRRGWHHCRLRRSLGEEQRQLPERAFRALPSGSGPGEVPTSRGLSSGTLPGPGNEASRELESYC
The assay can be described thus: cAMP induction, firefly luciferase-based reporter assay in HEK293 cells co-transfected with GIP receptor. As to conditions: EC50 at GIP Receptor.
From the text: as §1

The next assay deals with T3, glucagon receptor (Homo sapiens, UniProt P47871).
T3 construct: expressed in transfected cells; host or cells: HEK293
T3 sequence (P47871 26-477): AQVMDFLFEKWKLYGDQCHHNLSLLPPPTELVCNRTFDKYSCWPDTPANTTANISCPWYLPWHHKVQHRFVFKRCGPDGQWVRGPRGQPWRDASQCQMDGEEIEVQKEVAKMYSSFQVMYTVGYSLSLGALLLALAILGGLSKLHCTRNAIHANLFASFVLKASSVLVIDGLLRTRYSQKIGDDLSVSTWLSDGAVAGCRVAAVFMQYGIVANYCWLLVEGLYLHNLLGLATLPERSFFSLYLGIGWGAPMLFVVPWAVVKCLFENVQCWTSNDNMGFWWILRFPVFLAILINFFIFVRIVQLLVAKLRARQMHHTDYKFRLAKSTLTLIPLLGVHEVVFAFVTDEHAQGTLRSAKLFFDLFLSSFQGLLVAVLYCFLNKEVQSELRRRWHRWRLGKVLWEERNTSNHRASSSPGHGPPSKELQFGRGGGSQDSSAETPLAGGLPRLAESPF
The assay can be described thus: cAMP induction, firefly luciferase-based reporter assay in HEK293 cells co-transfected with glucagon receptor. Conditions: EC50 at Glucagon Receptor.
From the text: as §1

Setting [1] is: Table 3, analogs of SEQ ID NO: 18 varying at position 3.
Setting [2] is: Table 4, analogs of SEQ ID NO: 43 varying at position 3.
The mark [3] stands for this setting: Table 5, analogs of SEQ ID NO: 10.

For orientation: EC50 means the concentration needed to bring the measured effect to its halfway point. Read a high EC50 as a less potent agent.

*1 amine or outer side, *2 acyl side, *3 side chain or, on linkers, in order; H or OH if unused. Where a SMILES comes first, the peptide text is derived from it. Where no end group is shown, it is not given here. Side-chain parts run from the residue outwards. [ ]: non-standard residue; d: D form. The star is where a group is joined. γGlu = O=C(O)[C@H](CCC(=O)[*:2])N[*:1]; Palmitoyl = CCCCCCCCCCCCCCCC(=O)*; hSer = N[C@@H](CCO)C(=O)O; Nle = CCCC[C@H](N)C(=O)O; Aib = CC(C)(N)C(=O)O

T1 sequence (P43220 24-463): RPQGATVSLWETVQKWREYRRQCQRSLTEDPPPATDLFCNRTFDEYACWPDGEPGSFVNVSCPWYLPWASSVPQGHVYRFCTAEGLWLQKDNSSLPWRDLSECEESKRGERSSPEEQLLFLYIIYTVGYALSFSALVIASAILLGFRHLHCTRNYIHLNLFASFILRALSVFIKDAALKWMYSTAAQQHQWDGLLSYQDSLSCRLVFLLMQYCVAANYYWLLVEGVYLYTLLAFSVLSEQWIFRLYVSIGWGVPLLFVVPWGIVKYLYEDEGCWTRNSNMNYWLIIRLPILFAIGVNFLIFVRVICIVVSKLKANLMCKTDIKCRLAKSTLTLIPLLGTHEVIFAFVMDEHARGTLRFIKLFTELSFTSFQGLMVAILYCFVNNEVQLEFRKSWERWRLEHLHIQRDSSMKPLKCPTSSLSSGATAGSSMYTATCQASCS

Turning to `CCCCCCCCCCCCCCCC(=O)N[C@@H](CCC(=O)NCCCC[C@H](NC(=O)[C@H](CC(=O)O)NC(=O)[C@H](CO)NC(=O)[C@@H](NC(=O)[C@H](Cc1ccccc1)NC(=O)[C@@H](NC(=O)CNC(=O)[C@@H](NC(=O)C(C)(C)NC(=O)[C@@H](N)Cc1c[nH]cn1)C(C)C)[C@@H](C)O)[C@@H](C)O)C(=O)N[C@@H](CO)C(=O)N[C@@H](CCCCN)C(=O)N[C@@H](Cc1ccc(O)cc1)C(=O)N[C@@H](CC(C)C)C(=O)N[C@@H](CCC(=O)O)C(=O)N[C@@H](CCC(=O)O)C(=O)N[C@@H](CCCNC(=N)N)C(=O)N[C@@H](C)C(=O)N[C@@H](C)C(=O)N[C@@H](CCC(N)=O)C(=O)N[C@@H](CCC(=O)O)C(=O)N[C@@H](Cc1ccccc1)C(=O)N[C@H](C(=O)N[C@@H](CCC(N)=O)C(=O)N[C@@H](Cc1c[nH]c2ccccc12)C(=O)N[C@@H](CC(C)C)C(=O)N[C@@H](CC(C)C)C(=O)N[C@@H](CCC(=O)O)C(=O)NCC(=O)NCC(=O)N1CCC[C@H]1C(=O)N[C@@H](CO)C(=O)N[C@@H](CO)C(=O)NCC(=O)N[C@@H](C)C(=O)N1CCC[C@H]1C(=O)N1CCC[C@H]1C(=O)N1CCC[C@H]1C(=O)N[C@@H](CO)C(N)=O)C(C)C)C(=O)O` [compound 37] (H-H[Aib]VGTFTSDK([γGlu-Palmitoyl])SKYLEERAAQEFVQWLLEGGPSSGAPPPS-NH2; N-terminus assumed), the EC50 is 2 pM on GLP-1 receptor (setting [1]), 2 pM on GIP receptor (setting [1]) and 29 pM on glucagon receptor (setting [1]).

Regarding `CCCCCCCCCCCCCCCC(=O)N[C@@H](CCC(=O)NCCCC[C@H](NC(=O)[C@H](CC(=O)O)NC(=O)[C@H](CO)NC(=O)[C@@H](NC(=O)[C@H](Cc1ccccc1)NC(=O)[C@@H](NC(=O)CNC(=O)[C@H](CCC(N)=O)NC(=O)C(C)(C)NC(=O)[C@@H](N)Cc1c[nH]cn1)[C@@H](C)O)[C@@H](C)O)C(=O)N[C@@H](CO)C(=O)N[C@@H](CCCCN)C(=O)N[C@@H](Cc1ccc(O)cc1)C(=O)N[C@@H](CC(C)C)C(=O)N[C@@H](CC(=O)O)C(=O)N[C@@H](CCC(=O)O)C(=O)N[C@@H](CCCNC(=N)N)C(=O)N[C@@H](C)C(=O)N[C@@H](C)C(=O)N[C@@H](CCC(N)=O)C(=O)N[C@@H](CC(=O)O)C(=O)N[C@@H](Cc1ccccc1)C(=O)N[C@H](C(=O)N[C@@H](CCC(N)=O)C(=O)N[C@@H](Cc1c[nH]c2ccccc12)C(=O)N[C@@H](CC(C)C)C(=O)N[C@@H](CC(C)C)C(=O)N[C@@H](CCC(=O)O)C(=O)NCC(=O)NCC(=O)N1CCC[C@H]1C(=O)N[C@@H](CO)C(=O)N[C@@H](CO)C(=O)NCC(=O)N[C@@H](C)C(=O)N1CCC[C@H]1C(=O)N1CCC[C@H]1C(=O)N1CCC[C@H]1C(=O)N[C@@H](CO)C(N)=O)C(C)C)C(=O)O` [compound 43] (H-H[Aib]QGTFTSDK([γGlu-Palmitoyl])SKYLDERAAQDFVQWLLEGGPSSGAPPPS-NH2), the EC50 at GLP-1 receptor (Table 1) stood at 4 pM; at GLP-1 receptor (setting [2]), 10 pM; at GLP-1 receptor (setting [3]), 7 pM; on GIP receptor (Table 1) it was 5 pM; at GIP receptor (setting [2]) it was 4 pM; on GIP receptor (setting [3]), 18 pM. Moreover, the EC50 at glucagon receptor (Table 1) was 6 pM; at glucagon receptor (setting [2]) it was 5 pM; on glucagon receptor (setting [3]), 5 pM.

Take `CCCCCCCCCCCCCCCC(=O)N[C@@H](CCC(=O)NCCCC[C@H](NC(=O)[C@H](CC(=O)O)NC(=O)[C@H](CO)NC(=O)[C@@H](NC(=O)[C@H](Cc1ccccc1)NC(=O)[C@@H](NC(=O)CNC(=O)[C@H](CCO)NC(=O)C(C)(C)NC(=O)[C@@H](N)Cc1c[nH]cn1)[C@@H](C)O)[C@@H](C)O)C(=O)N[C@@H](CO)C(=O)N[C@@H](CCCCN)C(=O)N[C@@H](Cc1ccc(O)cc1)C(=O)N[C@@H](CC(C)C)C(=O)N[C@@H](CC(=O)O)C(=O)N[C@@H](CCC(=O)O)C(=O)N[C@@H](CCCNC(=N)N)C(=O)N[C@@H](C)C(=O)N[C@@H](C)C(=O)N[C@@H](CCC(N)=O)C(=O)N[C@@H](CC(=O)O)C(=O)N[C@@H](Cc1ccccc1)C(=O)N[C@H](C(=O)N[C@@H](CCC(N)=O)C(=O)N[C@@H](Cc1c[nH]c2ccccc12)C(=O)N[C@@H](CC(C)C)C(=O)N[C@@H](CC(C)C)C(=O)N[C@@H](CCC(=O)O)C(=O)NCC(=O)NCC(=O)N1CCC[C@H]1C(=O)N[C@@H](CO)C(=O)N[C@@H](CO)C(=O)NCC(=O)N[C@@H](C)C(=O)N1CCC[C@H]1C(=O)N1CCC[C@H]1C(=O)N1CCC[C@H]1C(=O)N[C@@H](CO)C(N)=O)C(C)C)C(=O)O` [compound 48] (H-H[Aib][hSer]GTFTSDK([γGlu-Palmitoyl])SKYLDERAAQDFVQWLLEGGPSSGAPPPS-NH2): the EC50 amounted to 3 pM on GLP-1 receptor (setting [2]), 4 pM at GIP receptor (setting [2]) and 16 pM at glucagon receptor (setting [2]).

On GLP-1 receptor (Table 1), “H-H[Aib]QGTFTSEYSKYLDERAAQDFVQWLLDGGPSSGAPPPSK([γGlu-γGlu-Palmitoyl])G-NH2 [compound 16]” had a concentration giving a half-maximal response (EC50) of 2 pM.

Regarding `CCCCCCCCCCCCCCCC(=O)N[C@@H](CCC(=O)NCCCC[C@H](NC(=O)[C@H](CC(=O)O)NC(=O)[C@H](CO)NC(=O)[C@@H](NC(=O)[C@H](Cc1ccccc1)NC(=O)[C@@H](NC(=O)CNC(=O)[C@H](CCCC)NC(=O)C(C)(C)NC(=O)[C@@H](N)Cc1c[nH]cn1)[C@@H](C)O)[C@@H](C)O)C(=O)N[C@@H](CO)C(=O)N[C@@H](CCCCN)C(=O)N[C@@H](Cc1ccc(O)cc1)C(=O)N[C@@H](CC(C)C)C(=O)N[C@@H](CCC(=O)O)C(=O)N[C@@H](CCC(=O)O)C(=O)N[C@@H](CCCNC(=N)N)C(=O)N[C@@H](C)C(=O)N[C@@H](C)C(=O)N[C@@H](CCC(N)=O)C(=O)N[C@@H](CCC(=O)O)C(=O)N[C@@H](Cc1ccccc1)C(=O)N[C@H](C(=O)N[C@@H](CCC(N)=O)C(=O)N[C@@H](Cc1c[nH]c2ccccc12)C(=O)N[C@@H](CC(C)C)C(=O)N[C@@H](CC(C)C)C(=O)N[C@@H](CCC(=O)O)C(=O)NCC(=O)NCC(=O)N1CCC[C@H]1C(=O)N[C@@H](CO)C(=O)N[C@@H](CO)C(=O)NCC(=O)N[C@@H](C)C(=O)N1CCC[C@H]1C(=O)N1CCC[C@H]1C(=O)N1CCC[C@H]1C(=O)N[C@@H](CO)C(N)=O)C(C)C)C(=O)O` [compound 40] (H-H[Aib][Nle]GTFTSDK([γGlu-Palmitoyl])SKYLEERAAQEFVQWLLEGGPSSGAPPPS-NH2; N-terminus assumed), the figures for the 50% effective concentration (EC50) on GLP-1 receptor (setting [1]), on GIP receptor (setting [1]) and at glucagon receptor (setting [1]) were 2 pM, 4 pM and 68 pM, respectively.

For `CCCCCCCCCCCCCCCC(=O)N[C@@H](CCC(=O)NCCCC[C@H](NC(=O)[C@H](CC(=O)O)NC(=O)[C@H](CO)NC(=O)[C@@H](NC(=O)[C@H](Cc1ccccc1)NC(=O)[C@@H](NC(=O)CNC(=O)[C@H](CCC(=O)O)NC(=O)C(C)(C)NC(=O)[C@@H](N)Cc1c[nH]cn1)[C@@H](C)O)[C@@H](C)O)C(=O)N[C@@H](CO)C(=O)N[C@@H](CCCCN)C(=O)N[C@@H](Cc1ccc(O)cc1)C(=O)N[C@@H](CC(C)C)C(=O)N[C@@H](CC(=O)O)C(=O)N[C@@H](CCC(=O)O)C(=O)N[C@@H](CCCNC(=N)N)C(=O)N[C@@H](C)C(=O)N[C@@H](C)C(=O)N[C@@H](CCC(N)=O)C(=O)N[C@@H](CC(=O)O)C(=O)N[C@@H](Cc1ccccc1)C(=O)N[C@H](C(=O)N[C@@H](CCC(N)=O)C(=O)N[C@@H](Cc1c[nH]c2ccccc12)C(=O)N[C@@H](CC(C)C)C(=O)N[C@@H](CC(C)C)C(=O)N[C@@H](CCC(=O)O)C(=O)NCC(=O)NCC(=O)N1CCC[C@H]1C(=O)N[C@@H](CO)C(=O)N[C@@H](CO)C(=O)NCC(=O)N[C@@H](C)C(=O)N1CCC[C@H]1C(=O)N1CCC[C@H]1C(=O)N1CCC[C@H]1C(=O)N[C@@H](CO)C(N)=O)C(C)C)C(=O)O` [compound 44] (H-H[Aib]EGTFTSDK([γGlu-Palmitoyl])SKYLDERAAQDFVQWLLEGGPSSGAPPPS-NH2), the half-maximal effective concentration (EC50) at GLP-1 receptor (Table 1) worked out at 7 pM.

On to “H[Aib]QGTFTSDYAKYLDERAAQDFVQWLLDGGPSSGAPPPSK([γGlu-γGlu-Palmitoyl])G-NH2 [compound 17]”, for which the half-maximal effective concentration (EC50) on GLP-1 receptor (Table 1) is 8 pM; at GIP receptor (Table 1), 20 pM.

“H-H[Aib]QGTFTSDYSKYLEERAAQDFVQWLLDGGPSSGAPPPSK([γGlu-γGlu-Palmitoyl])G-NH2 [compound 15]”: the EC50 at GLP-1 receptor (Table 1) amounted to 3 pM; on glucagon receptor (Table 1), 5 pM.
